# From patent US20130131136A1, “NOVEL METHODS FOR PREDICTING THE RESPONSIVENESS OF A PATIENT AFFECTED WITH A TUMOR TO A TREATMENT WITH A TYROSINE KINASE INHIBITOR” (priority 2010, published 2013)
# How the values were obtained:
# [1] = tested on: advanced metastatic renal cell clear cell carcinoma; assay: Sutent treatment of patients with advanced metastatic renal cell clear cell carcinoma, response after the 3 months therapy course (RECIST criteria); assay type: in vivo, human; settings: of 50 patients analyzed, 50 mg/day for 4 weeks followed by 2 weeks off
# Experimental: All patients were diagnosed with advanced metastatic renal cell clear cell carcinoma and subjected to surgery for removal of the primary tumor. The tumor tissue was fixed in formaldehyde, and embedded in paraffin. Sections were cut and stained for the FSH receptor using the monoclonal antibody FSHR323, followed by a secondary HRP- or Alexa555-coupled antibody. The density of vessels in the tumor tissue was determined by microscopy using a 20× objective. Starting at the border between the normal and the tumor tissue and moving towards the interior of the tumor, digital photographs were taken of every other field. The number of FSHR-positive vessels in each image was counted in 20 images from each tumor.
# The patients were subjected to Sutent treatment for >=3 months with a dose of 50 mg/day for 4 weeks followed by 2 weeks off. Depending on the effects of the treatment, at the end of the 3 months therapy course the patients were designated as “responsive”, “stable” or “non-responsive” according to the criteria described in [Eisenhauer et al., 2009]. The patients were categorized as “responsive” if there was at least a 30% decrease in the sum of the diameters of the lesions, and “non-responsive” if the sum of the lesion sizes increased by at least 20%.
# [2] = tested on: metastatic renal cell carcinoma (mRCC); settings: cited from earlier work
# [3] = tested on: RCC; settings: BEV alone; cited from earlier work
Compound,"number of patients ""non-responsive"" (sum of the lesion sizes increased by at least 20%) [1]","number of patients ""responsive"" (at least 30% decrease in the sum of the diameters of the lesions) [1]","number of patients ""stable"" [1]",fraction of RCC patients who respond to the treatment ([2]; RCC patients),"reduction of the risk of relapse (progression-free survival) ([2]; first-line therapy, mRCC, compared to interferon-α)","adverse side effects ([2]; patients, typical treatment session 3 months)",activity in patients with RCC [3]
"CCN(CC)CCNC(=O)c1c(C)[nH]c(/C=C2\C(=O)Nc3ccc(F)cc32)c1C [Sutent, N-[2-(diethylamino)ethyl]-5-[(Z)-(5-fluoro-1,2-dihydro-2-oxo-3H-indol-3-ylidine)methyl]-2,4-dimethyl-1H-pyrrole-3 carboxamide]",17 patients,15 patients,18 patients,about one third,58%,significant adverse side effects,–
BEV: a monoclonal humanized antibody against circulating VEGF,–,–,–,–,–,–,showed activity only as second-line treatment and only in cytokine-refractory patients
